Holding throughout (format): functional, cell-based
One assay deals with NCI-H460. In words: Antiproliferative activity against human NCI-H460 cells assessed as reduction in cell viability measured after 24 hrs by MTT assay. The settings on record: NCI-H460, 24 h. (Tetrazolium dyes change colour on reduction, which living cells bring about.)
Another assay relates to MCF7. Nature of the assay: Antiproliferative activity against human MCF7 cells assessed as reduction in cell viability measured after 24 hrs by MTT assay. As to conditions: MCF7, 24 h.
A further assay concerns A2780S. Nature of the assay: Antiproliferative activity against human A2780S cells assessed as reduction in cell viability measured after 24 hrs by MTT assay.
The test system of a further assay is HeLa. Nature of the assay: Antiproliferative activity against human HeLa cells assessed as reduction in cell viability measured after 24 hrs by MTT assay.
The next assay deals with Raji. Nature of the assay: Antiproliferative activity against human Raji cells assessed as reduction in cell viability measured after 24 hrs by MTT assay.

Each structure is given as a SMILES string.

As a reminder, the IC50 is the concentration needed to halve the response being measured. In the case of `c1ccc2ncc(CNc3cc4c(cn3)[nH]c3ccccc34)cc2c1`, the IC50 in the assay with NCI-H460, in the assay with MCF7, in the assay on A2780S, with HeLa and in the assay on Raji was over 0.5 µM throughout.
As to `c1cc(CNc2cc3c(cn2)[nH]c2ccccc23)cc(OC2CCC2)c1`, the IC50 in the assay on NCI-H460, in the assay on MCF7, in the assay with A2780S, in the assay with HeLa and with Raji was over 0.5 µM each time.
For the compound `COc1ccc(CNc2cc3c(cn2)[nH]c2ccccc23)cn1`, the IC50 with NCI-H460, with MCF7, in the assay with A2780S, in the assay on HeLa and in the assay on Raji was over 0.5 µM each time.
For `c1ccc2c(CNc3cc4c(cn3)[nH]c3ccccc34)cccc2c1`, the IC50 with NCI-H460, in the assay on MCF7, in the assay on A2780S, in the assay on HeLa and in the assay with Raji was over 0.5 µM throughout.
Take `COc1cccc(Oc2cccc(CNc3cc4c(cn3)[nH]c3ccccc34)c2)c1`: the IC50 turned out to be 0.313 µM in the assay with NCI-H460; 0.109 µM with MCF7; 0.148 µM in the assay with A2780S; 0.219 µM in the assay on HeLa; 0.178 µM with Raji.
For the compound `CC(C)Oc1cccc(CNc2cc3c(cn2)[nH]c2ccccc23)c1`, the IC50 with NCI-H460, in the assay on MCF7, in the assay with A2780S, with HeLa and in the assay on Raji was over 0.5 µM each time.
In the case of `CCCOc1cccc(CNc2cc3c(cn2)[nH]c2ccccc23)c1`, the IC50 in the assay on NCI-H460, in the assay on MCF7, in the assay with A2780S, in the assay with HeLa and in the assay with Raji was over 0.5 µM in each case.
For the compound `COc1cc(Oc2cccc(CNc3cc4c(cn3)[nH]c3ccccc34)c2)cc(OC)c1OC`, the IC50 with NCI-H460, with MCF7, in the assay with A2780S, in the assay with HeLa and with Raji was over 0.5 µM each time.
Regarding `c1ccc(-c2ccc(Oc3cccc(CNc4cc5c(cn4)[nH]c4ccccc45)c3)cc2)cc1`, the IC50 in the assay on NCI-H460, with MCF7, in the assay on A2780S, with HeLa and in the assay on Raji was over 0.5 µM in each case.
Regarding `Cc1ccccc1Oc1cccc(CNc2cc3c(cn2)[nH]c2ccccc23)c1`, the half-inhibitory concentration (IC50) in the assay with NCI-H460 worked out at 0.052 µM; in the assay on MCF7 it was 0.059 µM; in the assay on A2780S it was 0.062 µM; in the assay with HeLa, 0.057 µM; in the assay with Raji, 0.032 µM.
For the compound `Cn1cccc1CNc1cc2c(cn1)[nH]c1ccccc12`, the IC50 in the assay with NCI-H460 was 0.5 µM; in the assay on MCF7, over 0.5 µM; in the assay with A2780S, over 0.5 µM; in the assay on HeLa, over 0.5 µM; in the assay with Raji it was over 0.5 µM.
Consider `Cc1ccc(Oc2cccc(CNc3cc4c(cn3)[nH]c3ccccc34)c2)cc1`, for which the IC50 in the assay on NCI-H460 stood at 0.165 µM; in the assay with MCF7, 0.039 µM; in the assay with A2780S it was 0.055 µM; in the assay with HeLa, 0.056 µM; with Raji it was 0.057 µM.
Take `CC(C)(C)CC(C)(C)c1ccc(Oc2cccc(CNc3cc4c(cn3)[nH]c3ccccc34)c2)cc1`: the half-maximal inhibitory concentration (IC50) in the assay with NCI-H460, with MCF7, with A2780S, in the assay on HeLa and in the assay on Raji was over 0.5 µM each time.
Consider `N#Cc1cccc(Oc2cccc(CNc3cc4c(cn3)[nH]c3ccccc34)c2)c1`, for which the concentration for half-maximal inhibition (IC50) is over 0.5 µM in the assay on NCI-H460; over 0.5 µM in the assay with MCF7; over 0.5 µM in the assay on A2780S; 0.5 µM in the assay on HeLa; over 0.5 µM in the assay with Raji.
As to `c1ccc2c(c1)[nH]c1cnc(NCC3CCCCC3)cc12`, the IC50 with NCI-H460, in the assay on MCF7, in the assay with A2780S, in the assay with HeLa and in the assay with Raji was over 0.5 µM in each case.
Regarding `Clc1ccc(Oc2cccc(CNc3cc4c(cn3)[nH]c3ccccc34)c2)cc1`, the IC50 in the assay on NCI-H460 came to 0.222 µM; in the assay with MCF7 it was 0.048 µM; in the assay with A2780S, 0.073 µM; in the assay on HeLa, 0.045 µM; in the assay with Raji, 0.074 µM.
Turning to `Clc1cccc(Oc2cccc(CNc3cc4c(cn3)[nH]c3ccccc34)c2)c1`, the IC50 with NCI-H460 came to 0.047 µM; with MCF7 it was 0.039 µM; in the assay on A2780S, 0.06 µM; in the assay with HeLa it was 0.043 µM; in the assay with Raji, 0.032 µM.
For `c1cncc(Oc2cccc(CNc3cc4c(cn3)[nH]c3ccccc34)c2)c1` the same measures were 0.333 µM, 0.153 µM, 0.229 µM, 0.209 µM and 0.333 µM.
The like results for `Fc1ccccc1Oc1cccc(CNc2cc3c(cn2)[nH]c2ccccc23)c1` were, in that order, 0.105 µM, 0.093 µM, 0.073 µM, 0.059 µM and 0.016 µM.
The like results for `c1cc(CNc2cc3c(cn2)[nH]c2ccccc23)cc(Oc2ccc3ncccc3c2)c1` were, in that order, 0.234 µM, 0.064 µM, 0.078 µM, 0.093 µM and 0.119 µM.
As to `CC(C)COc1cccc(CNc2cc3c(cn2)[nH]c2ccccc23)c1`, the IC50 in the assay with NCI-H460, in the assay on MCF7, in the assay on A2780S, in the assay with HeLa and with Raji was over 0.5 µM in each case.
Take `c1ccc(-c2cccc(CNc3cc4c(cn3)[nH]c3ccccc34)c2)cc1`: the concentration for half-maximal inhibition (IC50) with NCI-H460, in the assay with MCF7, in the assay on A2780S, in the assay on HeLa and in the assay with Raji was over 0.5 µM throughout.
Turning to `Fc1ccc(Oc2cccc(CNc3cc4c(cn3)[nH]c3ccccc34)c2)cc1`, the IC50 in the assay with NCI-H460 came out at 0.076 µM; in the assay on MCF7 it was 0.027 µM; with A2780S, 0.028 µM; in the assay on HeLa, 0.039 µM; with Raji, 0.033 µM.
